Experimental data taken from US20260232706A1, “1H-PYRAZOLE ANALOGUES AND METHODS AND USES THEREOF” (University of Manitoba, priority 2022, published 2026).
Several values for one entry are separate records, joined by “and”; a condition that tells them apart may be missing. Equal entries are not always repeated. Entries after “also recorded” stand apart in the source; their conditions may differ.

Experiments:
[1] = test system: neuroblastoma-spinal cord hybrid NSC-34 cells; experiment: Neuroprotective effect/cell viability analysis in NSC-34 cells against H2O2 induced oxidative stress; assay type: cell-based; conditions: prophylactic treatment, 250 μM H2O2, FIG. 7A
[2] = test system: SOD1-G37R mouse model of ALS, Het G37R (Line 42) mice; experiment: Therapeutic efficacy in the SOD1-G37R mouse model of ALS; assay type: in vivo
Experimental: Methods: B^5-EDR analogues were synthesized as described in Example 1. The specific methodology employed for this Example is described below. All the statistical analyses were carried out by using GraphPad Prism […] software (version 9.5.1 (733)), (GraphPad Software, La Jolla, CA). Statistical significance was performed using a two-tailed unpaired t-test used for body weight assessment, disease onset, survival, and weight loss comparisons. Kaplan-Meier survival analysis and log rank test was also used for survival analysis. For these in vivo studies, disease onset or symptom onset was defined by two criteria. The first criteria is defined by the loss of 10% body weight based on the highest recorded weight during the age of the mice after pre symptom onset treatment study. The loss of 10% body weight is often accompanied by appearance of symptoms of muscle weakness and the second criteria of disease onset, which is retrospectively defined as the age at which the mouse reaches peak weight. Mice were assessed and monitored daily by trained staff for weight and muscle weakness starting at 90 days of age i.e., well before clinical onset of disease. According to the common consensus among ALS scientific community, the disease onset is defined as a time when mice have reached their peak body weight well before the denervation induced muscle atrophy and weight loss.
Transgenic mice carrying human G37R mutant SOD1 [B6.Cg Tg(SOD1*G37R)42Dpr/J] were obtained from the Jackson Laboratory (Bar Harbor, ME, USA). These mice were crossed with female mice with a C57BL/6 background for at least four generations. Colonies are maintained in the Central Animal Care Services (CACS), University of Manitoba. The mice were used in accordance with the Guide of Care and Use of Experimental Animals of the Canadian Council on Animal Care. Transgenic offspring were genotyped by PCR of DNA obtained from ear biopsies, see (ia) below, using a protocol provided by the Jackson Laboratory.
For these experiments, a set of experiments was carried out having two groups of mice: • Group 1: Sham treatment (1:20 DMSO/PBS); and • Group 2: NS-1-2 treatment (1:20 DMSO/PBS) (10 mg/kg body weight/day). For these experiments, age matched Het G37R (Line 42) mice were administered vehicle (1:20, DMSO:PBS) or treatment (NS-1-2; 10 mg/kg bodyweight), daily, starting at the age of 90 days until the age of 210 days, and monitored daily for several significant humane point indicators including, a) Mouse unable to right itself in 15 sec b) 25% loss of weight on the highest recorded weight c) Full paralysis of one or more hind limbs d) Loss of bladder functions e) Crusty eyes/loss of vision and/or f) Penile prolapse.
For weight loss experiments, weight loss was based on highest recorded weight (humane end point).
For disease onset experiments, symptom onset was assessed (i.e. loss of 10% body weight based on the highest recorded weight with muscle weakness and time to peak body weight (days), was assessed and monitored daily by trained staff starting at 90 days of age i.e., well before pre-symptom onset of disease also, monitored daily for several significant humane point indicators including a) Mouse unable to right itself in 15 sec b) 25% loss of weight on the highest recorded weight c) Full paralysis of one or more hind limbs d) Loss of bladder functions e) Crusty eyes/loss of vision f) Penile prolapse. One tailed (unpaired t test) was performed to analyse age to reach (10%) loss of body weight.

[3] = test system: neuroblastoma-spinal cord hybrid NSC-34 cells; experiment: Neuroprotective effect/cell viability analysis in NSC-34 cells against H2O2 induced oxidative stress; assay type: cell-based; conditions: 250 μM H2O2
Experimental: Methods: The in vitro properties and antioxidant abilities of the synthesized B^5-EDR analogues were assessed in cell-based assays. […] The methodology employed for each of these assays is detailed below.
(iii) Methodology for neuroprotective effect/cell viability analysis in (NSC-34) cells (FIGS. 8A-B): Briefly, NSC-34 cells with about 20 k cells per well in 96 well plates were cultured in a complete medium consisting of high glucose Dulbecco's modified eagle medium (DMEM) (Thermo Fisher Scientific) supplemented with about 10% US-origin fetal bovine serum (Thermo Fisher Scientific), GlutaMAX-1, about 200 mM (100×) (Thermo Fisher Scientific), about 1% 100 mM Sodium pyruvate and about 1% 10,000 U/mL penicillin-streptomycin solution (Thermo Fisher Scientific) for about 20 h to reach confluency of about 70%—about 75%. All the cells were cultured in an incubator with about 5% of CO2 at about 37° C. About 20 kcells/100 μl/well were seeded in 96 well plates for about 20 h in triplicates. […] After about 1 h, the cells were treated with 250 μM of H2O2 for about 2 h. After a total period of about 3 h, about 10 μl of WST-8 reagent was added in each well and the absorbance readings were recorded after about 2.5 h at about 450 nm. All the experiments were repeated at least three times and measurements were run in triplicates.

[4] = individual animals, NS-1-2 treatment (N = 10)

Cc1cc(B2OC(C)(C)C(C)(C)O2)n(-c2ccccc2)n1 [NS-1-2, 3-methyl-5-(4,4,5,5-tetramethyl-1,3,2-dioxaborolan-2-yl)-1-phenyl1H-pyrazole]
protection from loss of cell viability induced by H2O2 [1]: protected NSC-34 cells from loss of cell viability
prolongation of survival age or life span versus control (Kaplan-Meier) ([2]; 10 mg/kg/day IP from age 90 to 210 days): 14.5 days
mean age of survival (humane end point) ([2]; 10 mg/kg/day IP from age 90 to 210 days, n=10, FIG. 14): 196.7 days
median survival (Kaplan-Meier) ([2]; 10 mg/kg/day IP from age 90 to 210 days, n=10, FIG. 15): 199.5 days
delay of disease onset versus control (Kaplan-Meier) ([2]; age to reach peak body weight): 20 days
percentage mean weight loss (humane end point) ([2]; based on highest recorded weight, n=10, FIG. 16): 17.55%
Age to reach 10% loss of body weight based on highest recorded weight with muscle weakness [2, 4]: 199 days and 171 days and 184 days and 180 days and 193 days and 195 days (2×) and 203 days and 196 days and 165 days
Disease Onset: Age to reach peak body weight [2, 4]: 143 days (2×) and 156 days and 147 days and 154 days and 164 days and 163 days and 188 days and 148 days and 144 days
Treatment G37R (Survival Days) (Humane End Point) [2, 4]: 201 Days (2×) and 205 Days and 189 Days and 195 Days and 198 Days and 203 Days and 197 Days and 204 Days and 174 Days
25% Loss of Weight Based on Highest Recorded Weight (Humane End Point) ([2]; individual animals, above or below the 25% criterion): Weight Loss <25%
Weight Loss (%) ([2]; individual animals, humane end point, based on highest recorded weight): Weight Loss (%): 17.056; also recorded: Weight Loss (%): 18.91; also recorded: Weight Loss (%): 19.67; also recorded: Weight Loss (%): 20; also recorded: Weight Loss (%): 15.68; also recorded: Weight Loss (%): 18.543; also recorded: Weight Loss (%): 10.122; also recorded: Weight Loss (%): 13.66; also recorded: Weight Loss (%): 18.548; also recorded: Weight Loss (%): 23.34
difference in survival versus control ([2]; mean, 10 mg/kg/day IP from age 90 to 210 days): 13.3 days
delay of disease onset versus control (10% weight loss) ([2]; mouse, in vivo): around 23.2 days
delay of disease onset versus control (time to peak body weight, mean) ([2]; mouse, in vivo): around 23.6 days
disease onset: mean age (loss of 10% body weight with muscle weakness) ([2]; n=10, FIG. 17): 188.1 days
disease onset: mean age (time to peak body weight) ([2]; n=10, FIG. 18): 155 days
median age to reach peak body weight (Kaplan-Meier, printed as median survival) ([2]; n=10, FIG. 19): 151 days
neuroprotection in scavenging neurotoxic effects of H2O2 compared to EDR ([3]; 1 μM): better neuroprotection
neuroprotection in scavenging neurotoxic effects of H2O2 compared to EDR ([3]; 25 μM): better neuroprotection
viability compared to EDR ([3]; 50 μM dose): almost equal viability
